In patent publication US20260297542A1, “HERBICIDE RESISTANT PLANTS” (SYNGENTA CROP PROTECTION AG, priority 2023, published 2026):
Residue numbers refer to the chain shown, from its start.

Key:
Assay in all cases: E. coli hemG growth inhibition by herbicide, AtPPO1 variant
Format in all cases: cell-based
Settings in all cases: read-out: percentage growth inhibition
[1] = biological target: T1, AtPPO1 L479M (Arabidopsis thaliana, UniProt P55826, L479M)
T1 construct: expressed in transfected cells; host or cells: E. coli BL21(DE3) hemG, pET24a plasmid
T1 sequence (P55826 35-537 L479M): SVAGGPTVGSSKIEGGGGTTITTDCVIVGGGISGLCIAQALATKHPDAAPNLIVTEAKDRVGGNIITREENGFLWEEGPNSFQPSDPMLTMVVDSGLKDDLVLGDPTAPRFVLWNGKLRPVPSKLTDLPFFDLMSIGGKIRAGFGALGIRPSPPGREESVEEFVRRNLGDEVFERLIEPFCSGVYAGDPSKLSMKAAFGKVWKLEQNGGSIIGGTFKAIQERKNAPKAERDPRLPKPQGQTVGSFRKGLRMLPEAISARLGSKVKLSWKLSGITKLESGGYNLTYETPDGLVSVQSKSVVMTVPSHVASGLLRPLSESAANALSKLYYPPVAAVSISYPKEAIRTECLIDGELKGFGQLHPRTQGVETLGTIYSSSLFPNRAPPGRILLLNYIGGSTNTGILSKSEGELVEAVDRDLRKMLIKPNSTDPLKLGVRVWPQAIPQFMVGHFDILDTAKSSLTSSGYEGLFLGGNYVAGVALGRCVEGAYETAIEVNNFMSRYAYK
From the text: (§1) A pET24a plasmid containing a DNA sequence encoding a variant of PPO1 derived from Arabidopsis thaliana (AtPPO1), codon-optimised for expression in E. coli and under control of a T7 promoter, was synthesised by Twist Bioscience (SEQ ID NO:3). This plasmid was used as the basis of a Site Saturation Variant Library (SSVL) that substituted the codons at 352 amino acid positions for codons that encoded one of the other 19 amino acids, or removed the codon altogether, resulting in a translation product with a deletion at that position.
(§2) The SSVL was batch-transformed by electroporation into an E. coli BL21(DE3) hemG strain with the hemG gene replaced by CmR conferring resistance to chloramphenicol and spread onto LA supplemented with 50 μg/mL kanamycin, 25 μg/mL chloramphenicol and 20 μg/mL hematin. Each batch consisted of all the plasmids that contained variants at two sites.
(§3) Colonies from batch transformations were inoculated into 500 μL of Terrific broth supplemented with 50 μg/mL kanamycin, 25 μg/mL chloramphenicol and 20 μg/mL hematin in 96-deepwell blocks. Cultures were grown for 24 hours at 37° C. with shaking at 250 rpm.
(§4) Overnight cultures were centrifuged and the cell pellets resuspended with 500 μL of Terrific broth. The resuspended cultures were used at a ratio of 1:100 to inoculate a fresh 96-deepwell block containing 500 μL of Terrific broth supplemented with 0.1 mM IPTG, 50 μg/mL kanamycin, 25 μg/mL chloramphenicol and 6.25 ppm of herbicide […] or E or 0.78 ppm herbicide B or DMSO. Assay cultures were grown for 24 hours at 37° C. with shaking at 250 rpm with the OD600 being measured at 24 hours post inoculation. Strains that grew in both DMSO and herbicide were determined to be herbicide tolerant with the percentage of growth inhibition being calculated as below: […]

[2] = biological target: T2, AtPPO1 Y426C (Arabidopsis thaliana, UniProt P55826, Y426C)
T2 construct: expressed in transfected cells; host or cells: E. coli BL21(DE3) hemG (pET24a, T7 promoter)
T2 sequence (P55826 35-537 Y426C): T1 sequence (P55826 35-537 L479M) with Y392C, M445L
From the text: as §1, §2, §3, §4

[3] = biological target: T3, AtPPO1 E212Y (Arabidopsis thaliana, UniProt P55826, E212Y)
T3 construct: expressed in transfected cells; host or cells: E. coli BL21(DE3) hemG (hemG replaced by CmR), pET24a plasmid
T3 sequence (P55826 35-537 E212Y): T1 sequence (P55826 35-537 L479M) with E178Y, M445L
From the text: as §1, §2, §3, §4

[4] = biological target: T4, AtPPO1 Y361C (Arabidopsis thaliana, UniProt P55826, Y361C)
T4 construct: expressed in transfected cells; host or cells: E. coli BL21(DE3) hemG, pET24a plasmid
T4 sequence (P55826 35-537 Y361C): T1 sequence (P55826 35-537 L479M) with Y327C, M445L
From the text: as §1, §2, §3, §4

Structure (SMILES): CCOC(=O)[C@]1(C)CC(c2cc(-n3c(=O)n(C)c(=S)n(C)c3=O)c(F)cc2Cl)=NO1 [Herbicide D, ethyl (5S)-3-[2-chloro-5-(3,5-dimethyl-2,6-dioxo-4-thioxo-1,3,5-triazinan-1-yl)-4-fluoro-phenyl]-5-methyl-4H-isoxazole-5-carboxylate]
- inhibition at 6.25 ppm [1]: 4%
- inhibition at 6.25 ppm [2]: 34%
- inhibition at 6.25 ppm [3]: 27%
- inhibition at 6.25 ppm [4]: 15%

Structure (SMILES): C#CCN1C(=O)C(F)(F)Oc2cc(F)c(-n3c(=O)n(C)c(=S)n(C)c3=O)cc21 [Herbicide B, trifludimoxazin]
- inhibition at 0.78 ppm [1]: 29%
- inhibition at 0.78 ppm [2]: 2%
- inhibition at 0.78 ppm [3]: 25%
- inhibition at 0.78 ppm [4]: 36%

Structure (SMILES): CC(C)N(C)S(=O)(=O)NC(=O)c1cc(-n2c(=O)cc(C(F)(F)F)n(C)c2=O)c(F)cc1Cl [Herbicide E, saflufenacil]
- inhibition at 6.25 ppm [1]: 28%
- inhibition at 6.25 ppm [2]: 4%
- inhibition at 6.25 ppm [3]: 65%
- inhibition at 6.25 ppm [4]: 35%
